Patent publication US20040186022A1, “Enhanced herbicides” (priority 1999, published 2004)
Several values for one entry are separate records, joined by “and”; a condition that tells them apart may be missing. Equal entries are not always repeated. Each block holds one compound with its values, some of them ahead of it.

Assays:
plants [1] = assay: Synergistic relationship between succinic acid and caprylic/capric acids C/C, herbicidal activity; type: in vivo
Excerpt: (§1) The herbicides were applied in the “spray to drip” amount or at a calibrated 20-60 gallons/acre. “Spray to drip” is an uncalibrated application of fluid to foliage, where sufficient spray volume is used to sufficiently saturate the foliage surface until excess fluid begins to drip from the foliage.

young potato plants = assay: Effects of desiccants and desiccant combinations with other compounds on young potato plants; type: in vivo; parameters: All evaluations (total score): scale not given here
Excerpt: as §1

[2] = system: snapbean and potato plants; assay: Enhancement of Scythe's herbicidal activity by selected compounds; type: in vivo; parameters: Totals, all evaluations, Beans / Totals, all evaluations, Potatoes / Totals, all evaluations, All / evaluation, 2 days, beans / evaluation, 2 days, potatoes / evaluation, 11 days, beans / evaluation, 11 days, potatoes / evaluation, 15 days, beans / evaluation, 15 days, potatoes: scale not given here
Excerpt: as §1

[3] = system: black beans (dry bean variety T39); assay: Synergistic interactions of succinic acid and di-ammonium succinate with other herbicidal compounds, dry beans (black); type: in vivo; settings: for Injury rating, average per plot: scale 1-5
Excerpt: as §1

[4] = system: navy dry beans (navy Vista); assay: Synergistic interactions of succinic acid and di-ammonium succinate with herbicidal compounds, navy dry beans; type: in vivo, dry bean (navy); settings: for Injury rating, average per plot: scale 1-5
Excerpt: as §1

[5] = system: 60 G/a: velvetleaf, black nightshade, redroot pigweed, foxtail and snapbeans; spray to drip: black nightshade, velvetleaf, foxtail and snapbeans; assay: Efficacy of 1.5% succinic acid with oleic, caprylic or pelargonic acid in an emulsification system (Emsorb 6900); type: in vivo; parameters: Injury rating, total score for 2 evaluation, Spray to drip / Injury rating, total score for 2 evaluation, Total Rating: scale not given here
Excerpt: as §1

plants [6] = assay: Herbicidal activity: comparison of caprylic, pelargonic and an equimolar mixture of caprylic and pelargonic acids; type: in vivo; settings: for Injury ratings based on 2 independent evaluations, 40 G/acre: 40 G/acre: chickweed, lambsquarter and green foxtail; for Injury ratings based on 2 independent evaluations, 40 G/acre / Injury ratings based on 2 independent evaluations, 60 G/acre: redroot pigweed, each pot rated 1 to 5; for Injury ratings based on 2 independent evaluations, 60 G/acre: 60 G/acre: chickweed, lambsquarter, green foxtail, crabgrass and wheat; for Average rating per pot: rating 1 to 5, 5 = complete desiccation of all plants
Excerpt: The herbicides were applied in the “spray to drip” amount or at a calibrated 20-60 gallons/acre. “Spray to drip” is an uncalibrated application of fluid to foliage, where sufficient spray volume is used to sufficiently saturate the foliage surface until excess fluid begins to drip from the foliage. In general, about 5 to 200 gallons/acre, preferably 20-100 gallons/acre can be effective.

[7] = system: 40 G/a: crab grass, pigweed, chick weed and foxtail; 60 G/a: pigweed, Kentucky bluegrass, foxtail, crab grass and barnyard grass; spray to drip: Kentucky …; assay: Herbicidal activities: synergy between succinic acid and pelargonic acid; type: in vivo; parameters: Total injury ratings, 60 G/a / Total injury ratings, Spray to drip / Total injury ratings, Total: scale not given here
Excerpt: as §1

soybeans [8] = assay: Synergistic relationships between succinic acid and caprylic acid at different application rates, testing soybeans; type: in vivo; settings: 2 days after a single foliar application, average of 2 sites, soybean Stine 2250; for Overall Effect: 5 equals profound desiccation
Excerpt: as §1

soybeans [9] = assay: Synergy comparisons of various organic acids with caprylic acid, testing soybeans; type: in vivo; settings: 3 days after a single foliar application, average of 2 sites, soybean Stine 2250; for Overall Effect: 5 equals profound desiccation
Excerpt: as §1

Dry Beans = assay: Synergistic relationship between succinic or citric acid and caprylic acid, testing dry beans; type: in vivo; settings: 3 days after single foliar application, dry bean Vista; for Green Foliage, Overall Effect / Yellow Foliage, Overall Effect: 5 equals profound desiccation
Excerpt: as §1

[10] = Measurement of pH values for test desiccants (Example 55); type: physicochemical
[11] = system: chickweed, redtop, velvetleaf, crabgrass and green foxtail; assay: Enhancement of herbicidal activity of caprylic/capric acids (c/c) using selected compounds at equimolar amounts; type: in vivo; parameters: Relative injury ratings, Day #4 / Relative injury ratings, Day #5: scale not given here; settings: for Relative injury ratings, Day #2: Day 2 after treatment, 40 G/acre, 8 pots, rating 1-5 per pot, […] Emsorb 6900, […] mineral oil; for Relative injury ratings, Day #4: Day 4 after treatment; for Relative injury ratings, Day #5: Day 5 after treatment; for Average rating per pot: scale 1-5
Excerpt: as §1

[12] = Day 2, one application at 40 G/acre, treatments 1-4, 9-11 in Emsorb 6900/mineral oil/Hasten, 5-8, 12-14 in 0.3% Sylgard 309
[13] = Day 1, one application at 40 G/acre, treatments 1-4, 9-11 in Emsorb 6900/mineral oil/Hasten, 5-8, 12-14 in 0.3% Sylgard 309

SMILES: O=C([O-])c1ccccc1O.[Na+] [0.5% sodium salicylate]
Injury ratings, Total (plants [1]; 40 G/a + 60 G/a): 1.5
Injury ratings based on 2 independent evaluations, 40 G/a (plants [1]; 40 G/acre: Canadian thistle, velvet leaf, Johnson grass and giant foxtail, each pot rated 1 to 5): 1
Injury ratings based on 2 independent evaluations, 60 G/a (plants [1]; 60 G/acre: velvetleaf, Johnson grass and giant foxtail, each pot rated 1 to 5): 0.5
Average rating per pot (plants [1]; rating 1 to 5, 5 = complete desiccation of all plants): 0.04

SMILES: CCCCCCCC(=O)O [1% caprylic]
Injury ratings of treated plants, day 1 (young potato plants; 1 day after application, 6 = complete desiccation): 2
Injury ratings of treated plants, day 3 (young potato plants; 3 days after application, 6 = complete desiccation): 3
Injury ratings of treated plants, day 6 (young potato plants; 6 days after application, 6 = complete desiccation): 2
Injury ratings of treated plants, day 17 (young potato plants; 17 days after application, 6 = complete desiccation): 2.5
Injury ratings of treated plants, day 22 (young potato plants; 22 days after application, 6 = complete desiccation): 3
Injury ratings of treated plants, day 27 (young potato plants; 27 days after application, 6 = complete desiccation): 3
Injury ratings of treated plants, […] (young potato plants; […] after application, 6 = complete desiccation): 2
All evaluations (total score) (young potato plants; total of all evaluation times): 17.5

SMILES: O=C([O-])c1ccccc1O.[Na+] [2% NaSalicylate]
Totals, all evaluations, All ([2]; beans + potatoes): 7.5
evaluation, 2 days, potatoes ([2]; potato, 2 days after application, 40 gallons/acre): 1
evaluation, 11 days, potatoes ([2]; potato, 11 days after application, 40 gallons/acre): 1
evaluation, 15 days, potatoes ([2]; potato, 15 days after application, 40 gallons/acre): 1
evaluation, […], potatoes ([2]; potato, […] after application, 40 gallons/acre, 6 = complete desiccation): 0
Totals, all evaluations, Potatoes ([2]; potato, total of 4 evaluation times): 3
evaluation, 2 days, beans ([2]; snapbean, 2 days after application, 40 gallons/acre): 1
evaluation, 11 days, beans ([2]; snapbean, 11 days after application, 40 gallons/acre): 1.5
evaluation, 15 days, beans ([2]; snapbean, 15 days after application, 40 gallons/acre): 1
evaluation, […], beans ([2]; snapbean, […] after application, 40 gallons/acre, 6 = complete desiccation): 1
Totals, all evaluations, Beans ([2]; snapbean, total of 4 evaluation times): 4.5

SMILES: N.N.O=C(O)CCC(=O)O [2.52% di-ammonium succinate, di-ammonium succinate]
Injury rating, average per plot [3, 12]: 0
% desiccation (Day 12), foliage [3]: 0%
% desiccation (Day 12), pods [3]: 0%
% desiccation (Day 12), vines [3]: 0%
Injury rating, average per plot ([3]; Day 12): 0
Injury rating, average per plot [4, 13]: 0
Injury rating, average per plot ([4]; Day 2): 0
Injury rating, average per plot ([4]; Day 3): 0
Injury rating, average per plot ([4]; Day 4): 0
% desiccation (Day 12), foliage [4]: 0%
% desiccation (Day 12), pods [4]: 0%
% desiccation (Day 12), vines [4]: 0%
Injury rating, average per plot ([4]; Day 12): 0

SMILES: CCCCCCCC/C=C\CCCCCCCC(=O)O [3% oleic, oleic acid]
Injury rating, total score for 2 evaluation, Total Rating ([5]; 60 G/a plus spray to drip): 33.6
Injury rating, total score for 2 evaluation, 60 G/a ([5]; 60 G/a, rating 1-5 per pot, 1% Emsorb, 0.3% Hasten): 24.2
Average rating per pot ([5]; scale 1-5): 1.2
Injury rating, total score for 2 evaluation, Spray to drip ([5]; spray to drip): 9.4

SMILES: O=C([O-])c1ccccc1O.[Na+] [3% sodium salicylate, sodium salicylate]
Injury rating, average per plot [3, 12]: 4
% desiccation (Day 12), foliage [3]: 95%
% desiccation (Day 12), pods [3]: 90%
% desiccation (Day 12), vines [3]: 90%
Injury rating, average per plot ([3]; Day 12): 4.78
Injury rating, average per plot [4, 13]: 3.8
Injury rating, average per plot ([4]; Day 2): 4.13
Injury rating, average per plot ([4]; Day 3): 4.57
Injury rating, average per plot ([4]; Day 4): 4.5
% desiccation (Day 12), foliage [4]: 92%
% desiccation (Day 12), pods [4]: 90%
% desiccation (Day 12), vines [4]: 70%
Injury rating, average per plot ([4]; Day 12): 4.7

SMILES: CCCCCCCCC(=O)O [3.375% pelargonic]
Injury ratings based on 2 independent evaluations, 40 G/acre (plants [6]): 43
Injury ratings based on 2 independent evaluations, 60 G/acre (plants [6]): 53.6
Average rating per pot (plants [6]): 4.41

SMILES: CCCCCCCCC(=O)O [4% pelargonic acid, pelargonic acid]
Total injury ratings, Total ([7]; 40 G/a, 60 G/a and spray to drip): 153.4
Total injury ratings, 40 G/a ([7]; 40 G/a, 9 pots/treatment, rating 1-5 per pot, 1.125% Emsorb 6900): 41.6
Total injury ratings, 60 G/a ([7]; 60 G/a, 10 pots/treatment): 45.6
Total injury ratings, Spray to drip ([7]; spray to drip, 7 pots/treatment): 66.2

SMILES: CCCCCCCCC(=O)O [4.5% pelargonic]
Injury ratings based on 2 independent evaluations, 40 G/acre (plants [6]): 45.1
Injury ratings based on 2 independent evaluations, 60 G/acre (plants [6]): 53.9
Average rating per pot (plants [6]): 4.51

SMILES: CCCCCCCC(=O)O [Caprylic Acid (0.2%)]
Foliage Affected (%) (soybeans [8]): 1.25%
Overall Effect (soybeans [8]): 0.5

pH Value [10]: 3.55 and 3.30
SMILES: CCCCCCCC(=O)O [Caprylic Acid (0.5%)]
Foliage Affected (%) (soybeans [9]): 5%
Overall Effect (soybeans [9]): 1.5
Green Foliage, Foliage Affected (%) (Dry Beans): 10-15%
Yellow Foliage, Foliage Affected (%) (Dry Beans): 70%
Green Foliage, Overall Effect (Dry Beans): 2.5
Yellow Foliage, Overall Effect (Dry Beans): 2
Foliage Affected (%) (soybeans [8]): 9%
Overall Effect (soybeans [8]): 2.25

pH Value [10]: 1.64
SMILES: O=C(O)CC(O)(CC(=O)O)C(=O)O [Citric Acid (0.5%)]
Green Foliage, Foliage Affected (%) (Dry Beans): 0%
Yellow Foliage, Foliage Affected (%) (Dry Beans): 0%
Green Foliage, Overall Effect (Dry Beans): 0
Yellow Foliage, Overall Effect (Dry Beans): 0

SMILES: O=C(O)CC(O)(CC(=O)O)C(=O)O [CitricAcid (0.5%)]
Foliage Affected (%) (soybeans [9]): 0%
Overall Effect (soybeans [9]): 0

pH Value [10]: 1.93
SMILES: C[C@H](O)C(=O)O [L-Lactic Acid (0.5%)]
Foliage Affected (%) (soybeans [9]): 0%
Overall Effect (soybeans [9]): 0

SMILES: C[C@H](O)C(=O)O [L-Lactic Acid (1.0%)]
Foliage Affected (%) (soybeans [8]): 1.25%
Overall Effect (soybeans [8]): 0.5

pH Value [10]: 1.69
SMILES: O=C(O)CC(O)C(=O)O [L-Malic Acid (0.5%)]
Foliage Affected (%) (soybeans [9]): 0%
Overall Effect (soybeans [9]): 0

SMILES: O=C([O-])c1ccccc1O.[Na+] [Na Salicylate (0.5%)]
Green Foliage, Foliage Affected (%) (Dry Beans): 5-10%
Yellow Foliage, Foliage Affected (%) (Dry Beans): 30%
Green Foliage, Overall Effect (Dry Beans): 2
Yellow Foliage, Overall Effect (Dry Beans): 1

SMILES: O=C([O-])c1ccccc1O.[Na+] [Na Salicylate (2%)]
Green Foliage, Foliage Affected (%) (Dry Beans): 90%
Yellow Foliage, Foliage Affected (%) (Dry Beans): >90%
Green Foliage, Overall Effect (Dry Beans): 5
Yellow Foliage, Overall Effect (Dry Beans): 5

SMILES: O=C(O)CCC(=O)O [Succinic Acid (0.5%)]
Foliage Affected (%) (soybeans [9]): 0%
Overall Effect (soybeans [9]): 0
Green Foliage, Foliage Affected (%) (Dry Beans): 0%
Yellow Foliage, Foliage Affected (%) (Dry Beans): 0%
Green Foliage, Overall Effect (Dry Beans): 0
Yellow Foliage, Overall Effect (Dry Beans): 0
pH Value [10]: 1.94

SMILES: N.N.O=S(=O)(O)O [ammonium sulfate (1.12%), ammonium sulfate]
Relative injury ratings, Day #2 [11]: 0
Relative injury ratings, Day #4 [11]: 0
Relative injury ratings, Day #5 [11]: 0
Average rating per pot [11]: 0

SMILES: N.N.O=C(O)C(O)C(O)C(=O)O (centres unmarked) [ammonium tartrate (1.42%), ammonium tartrate]
Relative injury ratings, Day #2 [11]: 0
Relative injury ratings, Day #4 [11]: 0
Relative injury ratings, Day #5 [11]: 0
Average rating per pot [11]: 0

SMILES: N.N.O=C(O)CCC(=O)O [di-ammonium succinate (1.26%), di-ammonium succinate]
Relative injury ratings, Day #2 [11]: 0
Relative injury ratings, Day #4 [11]: 0
Relative injury ratings, Day #5 [11]: 0
Average rating per pot [11]: 0
